{
  "source": "patent US7186701B2",
  "about": "“Dehydrating agent and method for dehydrating moist article using the agent and dehydrated article obtained by the method” (Kabushiki Kaisha Hayashibara Seibutsu Kagaku Kenkyujo, priority 2001, dated 2007)",
  "key": {"[1]": {"test": "Amino carbonyl reaction with polypeptone", "assay_type": "physicochemical", "conditions": "10% (w/v) with 5% (w/v) polypeptone, 100° C., minus control", "protocol": "Four milliliter aliquots of the resulting solution were placed in glass test tubes, sealed, and heated at 100° C. for 30 to 90 min. After allowing to stand for cooling at ambient temperature, each of the resulting solution was measured for coloration degree to examine their amino carbonyl reactivity. In parallel, as a control, a solution with only polypeptone was provided and treated similarly as above. The coloration degree was evaluated based on the level of the absorbance, which had been measured in a cell with 1-cm light pass at a wavelength of 480 nm, minused that of the control."}, "[2]": {"system": "Eubacterium aerofaciens ATCC 25986", "test": "Assimilation test", "assay_type": "cell-based", "conditions": "0.5% saccharide in PYF medium, 37° C., four days, anaerobic"}, "Inclusion action": {"test": "Inclusion action", "assay_type": "physicochemical", "protocol": "To 100 g aliquots of the aqueous solution was added 2 g of methanol, 3 g of ethanol, or 4.6 g acetic acid to be included by the cyclotetrasaccharide. Thereafter, each of the resulting solutions was filtered to remove non-inclusion products, and the filtrates were dried in vacuo. As a control, similar inclusion products were prepared by using “ISOELITE™ P”, a branched cyclodextrin commercialized by Maruha K.K., Tokyo, Japan, which were known to have inclusion ability.\nTo measure the amount of the inclusion products in the resulting lyophilized powders, one gram of each of the powders was dissolved in five milliliters of water and extracted after admixing with five milliliters of diethylether. The extraction was repeated, and the resulting extracts were quantified on gas chromatography."}, "[3]": {"system": "Escherichia coli IFO 3301", "test": "Assimilation test", "assay_type": "cell-based", "conditions": "0.5% saccharide in PYF medium, 37° C., four days, anaerobic"}, "[4]": {"system": "Bifidobacterium adolescentis JCM 1275", "test": "Assimilation test", "assay_type": "cell-based", "conditions": "0.5% saccharide in PYF medium, 37° C., four days, anaerobic"}, "[5]": {"system": "Clostridium perfringens JCM 3816", "assay_type": "cell-based", "conditions": "0.5% saccharide in PYF medium, 37° C., four days, anaerobic"}, "[6]": {"test": "Amino carbonyl reaction with glycine", "assay_type": "physicochemical", "conditions": "10% (w/v) with 1% (w/v) glycine, pH 7.0, 120° C.", "protocol": "Four milliliter aliquots of the resulting solution were placed in glass test tubes, sealed, and heated at 120° C. for 30 to 90 min. After allowing to stand for cooling at ambient temperature, each of the resulting solutions was measured for coloration degree to examine their amino carbonyl reactivity. The coloration degree was evaluated based on the absorbance in a cell with 1-cm light pass at a wavelength of 480 nm."}, "mice": {"system": "mice", "test": "Acute toxicity test, oral", "assay_type": "in vivo", "conditions": "oral administration to mice", "description": "Based on this, the LD50 of cyclotetrasaccharide was at least 50 g/kg mouse body weight, though the value was […]."}, "[7]": {"test": "Saturation concentration of cyclotetrasaccharide in water", "assay_type": "physicochemical", "description": "The resulting each saturated solution of cyclotetrasaccharide was membrane filtered to remove undissolved cyclotetrasaccharide, and each filtrate was then examined for moisture content by the drying loss method to determine a saturation concentration of cyclotetrasaccharide at respective temperatures."}, "pH stability": {"test": "pH stability", "assay_type": "physicochemical", "conditions": "4% (w/v), 100° C., 24 hours; for Purity (%) after heating: HPLC", "protocol": "Eight milliliters of each solution was placed in a glass test tube, followed by sealing and then heating the test tube at 100° C. for 24 hours. After the heating, each solution was cooled and measured for coloration degree and determined for purity on HPLC. The coloration degree was evaluated based on the absorbance in a cell with a 1-cm light pass at a wavelength of 480 nm."}, "[8]": {"system": "Small intestinal mucosal enzyme"}, "[9]": {"system": "Lactobacillus acidophilus JCM 1132", "test": "Assimilation test", "assay_type": "cell-based", "conditions": "0.5% saccharide in PYF medium, 37° C., four days, anaerobic"}, "[10]": {"system": "Bacteroides vulgatus JCM 5826", "test": "Assimilation test", "assay_type": "cell-based", "conditions": "0.5% saccharide in PYF medium, 37° C., four days, anaerobic"}, "salivary amylase": {"target": "T1, salivary amylase (Homo sapiens, UniProt P0DUB6)", "T1 sequence (P0DUB6 16-511)": "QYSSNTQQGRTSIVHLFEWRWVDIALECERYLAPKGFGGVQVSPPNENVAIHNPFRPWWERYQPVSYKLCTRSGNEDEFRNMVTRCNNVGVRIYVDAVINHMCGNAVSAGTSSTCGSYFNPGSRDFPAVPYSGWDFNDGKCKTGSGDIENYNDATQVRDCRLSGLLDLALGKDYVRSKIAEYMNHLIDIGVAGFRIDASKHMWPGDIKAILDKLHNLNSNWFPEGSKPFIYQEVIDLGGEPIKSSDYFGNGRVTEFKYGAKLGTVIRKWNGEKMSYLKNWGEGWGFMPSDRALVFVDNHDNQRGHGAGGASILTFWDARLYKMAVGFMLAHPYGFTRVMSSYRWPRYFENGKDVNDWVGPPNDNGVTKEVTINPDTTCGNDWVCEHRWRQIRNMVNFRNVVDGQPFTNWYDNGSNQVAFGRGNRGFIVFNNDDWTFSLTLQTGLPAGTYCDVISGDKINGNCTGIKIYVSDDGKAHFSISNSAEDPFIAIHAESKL"}, "Thermostability": {"test": "Thermostability", "assay_type": "physicochemical", "conditions": "10% (w/v) aqueous solution, 120° C.; for Purity (%) after heating: HPLC", "protocol": "After the heating, the aqueous solutions were cooled under atmospheric conditions and measured for coloration degree and determined for purity on HPLC. The coloration degree of each solution was evaluated based on the absorbance in a cell with a 1-cm light pass at a wavelength of 480 nm."}},
  "data": [
    {"compound": "OCC1OC2OCC3O[C@H](O[C@H]4C(O)C(CO)OC(OCC5O[C@H](O[C@@H](C1O)C2O)C(O)C(O)[C@@H]5O)C4O)C(O)C(O)[C@@H]3O", "note": "(stereo partly drawn) [cyclotetrasaccharide, cyclo{→6)-α-D-glucopyranosyl-(1→3)-α-D-glucopyranosyl-(1→6)-α-D-glucopyranosyl-(1→3)-α-D-glucopyranosyl-(1→}]", "values": [
      {"measurement": "Coloration degree (A480 nm)", "setting": "[1]; heating time 0 min", "value": 0.00, "unit": "A480 nm"},
      {"measurement": "Coloration degree (A480 nm)", "setting": "[1]; heating time 30 min", "value": 0.00, "unit": "A480 nm"},
      {"measurement": "Coloration degree (A480 nm)", "setting": "[1]; heating time 60 min", "value": 0.00, "unit": "A480 nm"},
      {"measurement": "Coloration degree (A480 nm)", "setting": "[1]; heating time 90 min", "value": 0.00, "unit": "A480 nm"},
      {"measurement": "Assimilability", "setting": "[2]", "value": "− (judged as negative (−) when the post culture had a pH of 6.0 or higher)"},
      {"measurement": "inclusion ability relative to that of the branched cyclodextrin by weight", "setting": "Inclusion action", "value": "about 2 folds"},
      {"measurement": "Inclusion amount (mg/g lyophilized powder)", "setting": "Inclusion action; inclusion product Acetic acid", "value": 67.74, "unit": "mg/g lyophilized powder"},
      {"measurement": "Inclusion amount (mg/g lyophilized powder)", "setting": "Inclusion action; inclusion product Ethanol", "value": 17.26, "unit": "mg/g lyophilized powder"},
      {"measurement": "Inclusion amount (mg/g lyophilized powder)", "setting": "Inclusion action; inclusion product Methanol", "value": 6.71, "unit": "mg/g lyophilized powder"},
      {"measurement": "Assimilability", "setting": "[3]", "value": "− (judged as negative (−) when the post culture had a pH of 6.0 or higher)"},
      {"measurement": "Assimilability", "setting": "[4]", "value": "− (judged as negative (−) when the post culture had a pH of 6.0 or higher)"},
      {"measurement": "Assimilability", "setting": "[5]", "value": "− (judged as negative (−) when the post culture had a pH of 6.0 or higher)"},
      {"measurement": "Coloration degree (A480 nm)", "setting": "[6]; heating time 0 min", "value": 0.00, "unit": "A480 nm"},
      {"measurement": "Coloration degree (A480 nm)", "setting": "[6]; heating time 30 min", "value": 0.00, "unit": "A480 nm"},
      {"measurement": "Coloration degree (A480 nm)", "setting": "[6]; heating time 60 min", "value": 0.00, "unit": "A480 nm"},
      {"measurement": "Coloration degree (A480 nm)", "setting": "[6]; heating time 90 min", "value": 0.00, "unit": "A480 nm"},
      {"measurement": "LD50", "setting": "mice", "value": "at least 50 g/kg mouse body weight"},
      {"measurement": "Saturation concentration (%)", "setting": "[7]; 10 ° C.", "value": 30.3, "unit": "%"},
      {"measurement": "Saturation concentration (%)", "setting": "[7]; 30 ° C.", "value": 34.2, "unit": "%"},
      {"measurement": "Saturation concentration (%)", "setting": "[7]; 50 ° C.", "value": 42.6, "unit": "%"},
      {"measurement": "Saturation concentration (%)", "setting": "[7]; 70 ° C.", "value": 53.0, "unit": "%"},
      {"measurement": "Saturation concentration (%)", "setting": "[7]; 90 ° C.", "value": 70.5, "unit": "%"},
      {"measurement": "Coloration degree (A480 nm)", "setting": "pH stability; pH 2.0 (Acetate buffer)", "value": 0.00, "unit": "A480 nm"},
      {"measurement": "Purity (%) after heating", "setting": "pH stability; pH 2.0 (Acetate buffer)", "value": 93, "unit": "%"},
      {"measurement": "Coloration degree (A480 nm)", "setting": "pH stability; pH 3.0 (Acetate buffer)", "value": 0.00, "unit": "A480 nm"},
      {"measurement": "Purity (%) after heating", "setting": "pH stability; pH 3.0 (Acetate buffer)", "value": 100, "unit": "%"},
      {"measurement": "Coloration degree (A480 nm)", "setting": "pH stability; pH 4.0 (Acetate buffer)", "value": 0.00, "unit": "A480 nm"},
      {"measurement": "Purity (%) after heating", "setting": "pH stability; pH 4.0 (Acetate buffer)", "value": 100, "unit": "%"},
      {"measurement": "Coloration degree (A480 nm)", "setting": "pH stability; pH 5.0 (Acetate buffer)", "value": 0.00, "unit": "A480 nm"},
      {"measurement": "Purity (%) after heating", "setting": "pH stability; pH 5.0 (Acetate buffer)", "value": 100, "unit": "%"},
      {"measurement": "Coloration degree (A480 nm)", "setting": "pH stability; pH 6.0 (Tris-HCl buffer)", "value": 0.00, "unit": "A480 nm"},
      {"measurement": "Purity (%) after heating", "setting": "pH stability; pH 6.0 (Tris-HCl buffer)", "value": 100, "unit": "%"},
      {"measurement": "Coloration degree (A480 nm)", "setting": "pH stability; pH 7.0 (Tris-HCl buffer)", "value": 0.00, "unit": "A480 nm"},
      {"measurement": "Purity (%) after heating", "setting": "pH stability; pH 7.0 (Tris-HCl buffer)", "value": 100, "unit": "%"},
      {"measurement": "Coloration degree (A480 nm)", "setting": "pH stability; pH 8.0 (Tris-HCl buffer)", "value": 0.00, "unit": "A480 nm"},
      {"measurement": "Purity (%) after heating", "setting": "pH stability; pH 8.0 (Tris-HCl buffer)", "value": 100, "unit": "%"},
      {"measurement": "Coloration degree (A480 nm)", "setting": "pH stability; pH 9.0 (Ammonium buffer)", "value": 0.00, "unit": "A480 nm"},
      {"measurement": "Purity (%) after heating", "setting": "pH stability; pH 9.0 (Ammonium buffer)", "value": 100, "unit": "%"},
      {"measurement": "Coloration degree (A480 nm)", "setting": "pH stability; pH 10.0 (Ammonium buffer)", "value": 0.00, "unit": "A480 nm"},
      {"measurement": "Purity (%) after heating", "setting": "pH stability; pH 10.0 (Ammonium buffer)", "value": 100, "unit": "%"},
      {"measurement": "Decomposition percentage (%) by digestive enzyme", "setting": "[8]", "value": 0.74, "unit": "%"},
      {"measurement": "digestibility level relative to that of maltitol", "setting": "[8]", "value": "⅕"},
      {"measurement": "Assimilability", "setting": "[9]", "value": "− (judged as negative (−) when the post culture had a pH of 6.0 or higher)"},
      {"measurement": "Assimilability", "setting": "[10]", "value": "− (judged as negative (−) when the post culture had a pH of 6.0 or higher)"},
      {"measurement": "Decomposition percentage (%) by digestive enzyme", "setting": "salivary amylase", "value": 0.0, "unit": "%"},
      {"measurement": "Coloration degree (A480 nm)", "setting": "Thermostability; heating time 0 min", "value": 0.00, "unit": "A480 nm"},
      {"measurement": "Purity (%) after heating", "setting": "Thermostability; heating time 0 min", "value": 100, "unit": "%"},
      {"measurement": "Coloration degree (A480 nm)", "setting": "Thermostability; heating time 30 min", "value": 0.00, "unit": "A480 nm"},
      {"measurement": "Purity (%) after heating", "setting": "Thermostability; heating time 30 min", "value": 100, "unit": "%"},
      {"measurement": "Coloration degree (A480 nm)", "setting": "Thermostability; heating time 60 min", "value": 0.00, "unit": "A480 nm"},
      {"measurement": "Purity (%) after heating", "setting": "Thermostability; heating time 60 min", "value": 100, "unit": "%"},
      {"measurement": "Coloration degree (A480 nm)", "setting": "Thermostability; heating time 90 min", "value": 0.00, "unit": "A480 nm"},
      {"measurement": "Purity (%) after heating", "setting": "Thermostability; heating time 90 min", "value": 100, "unit": "%"}
    ]}
  ]
}
